Several values for one entry are separate records, joined by “and”; a condition that tells them apart may be missing. Equal entries are not always repeated. Where two headings read alike, the source gives them in different places.
Experiments:
[1] = biological target: T1, α-amylase from bovine pancreas (Bos taurus, UniProt Q3MHH8); test: hydrolysis of raw corn starch at pH 5.3 or 7.0, reducing sugar by DNSA; type: biochemical; conditions: for Relative Activity: 37° C., 20 min
T1 construct: The α-amylase from bovine pancreas; from tissue; host or cells: bovine pancreas
T1 sequence (Q3MHH8 16-511): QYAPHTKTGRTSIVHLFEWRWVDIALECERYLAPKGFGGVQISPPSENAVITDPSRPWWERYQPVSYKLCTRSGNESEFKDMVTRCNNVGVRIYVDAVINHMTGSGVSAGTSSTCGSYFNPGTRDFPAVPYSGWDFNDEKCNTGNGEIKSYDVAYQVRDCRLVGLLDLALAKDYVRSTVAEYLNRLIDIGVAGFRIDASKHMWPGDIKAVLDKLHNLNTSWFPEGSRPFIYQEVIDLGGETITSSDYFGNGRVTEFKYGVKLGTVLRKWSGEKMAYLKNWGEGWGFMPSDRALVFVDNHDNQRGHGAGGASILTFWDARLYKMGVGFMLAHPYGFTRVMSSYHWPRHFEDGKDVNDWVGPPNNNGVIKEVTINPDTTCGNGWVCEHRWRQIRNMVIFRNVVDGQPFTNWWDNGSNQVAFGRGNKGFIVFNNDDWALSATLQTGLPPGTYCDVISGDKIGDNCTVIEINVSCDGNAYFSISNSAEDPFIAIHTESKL
Description: (§1) Thereafter, 40 μl of each pre-incubation solution was added to 15 mg raw corn starch, and the reaction mixture incubated at 37° C. for 20 minutes. The control reaction mixture contained substrate, enzyme, and buffer but no manganese ion. The starch hydrolysis reaction was stopped by combining the reaction mixture with a solution containing DNSA and heating for 30 min at 85° C. The absorbance of the control and test samples was measured at 562 nm to monitor the amount of reducing sugar in each sample.

[2] = system: α-amylase from Bacillus subtilis; test: hydrolysis of cooked dent corn starch; type: biochemical; conditions: 0.01 mM Mn^++; cooked dent corn starch 0.5%; pH 5.2; 37° C., 10 min
Description: The separate reaction mixtures were incubated at 37° C. for 10 minutes. The control reaction mixtures contained enzyme, buffer, and starch but no manganese ion. The starch hydrolysis reaction was stopped by combining the reaction mixture with a solution containing DNSA and heating for 30 min at 85° C. The absorbance of the control and test samples was measured at 562 nm to monitor the amount of reducing sugar in each sample.

[3] = biological target: glucoamylase from Aspergillus Niger (Aspergillus niger, UniProt P69328); conditions: for Relative Activity: washed 5 times before enzyme, pH 5.3, 37° C., 20 min
Description: Thereafter 40 μl of the buffer and metal solution was added to 15 mg raw corn starch and the resulting mixture was pre-incubated at 20° C. for 20 minutes. The starch mixture was washed 5 times with excess buffer, followed by centrifugation, and removal of the supernatant. Then an enzyme solution containing buffer and the glucoamylase from Aspergillus niger was added to the washed starch and the reaction mixture incubated at 37° C. for 20 minutes. The control reaction mixture contained substrate, enzyme, and buffer but no manganese ion. The starch hydrolysis reaction was stopped by combining the reaction mixture with a solution containing DNSA and heating for 30 min at 85° C. The absorbance of the control and test samples was measured at 562 nm to monitor the amount of reducing sugar in each sample.

[4] = biological target: α-amylase from Bacillus amyloliquefaciens (Bacillus amyloliquefaciens, UniProt P00692); test: hydrolysis of raw corn starch, reducing sugar by DNSA; type: biochemical; conditions: for Relative Activity: raw corn starch, pH 5.3, 37° C., 20 min
α-amylase from Bacillus amyloliquefaciens, sequence (P00692 32-514): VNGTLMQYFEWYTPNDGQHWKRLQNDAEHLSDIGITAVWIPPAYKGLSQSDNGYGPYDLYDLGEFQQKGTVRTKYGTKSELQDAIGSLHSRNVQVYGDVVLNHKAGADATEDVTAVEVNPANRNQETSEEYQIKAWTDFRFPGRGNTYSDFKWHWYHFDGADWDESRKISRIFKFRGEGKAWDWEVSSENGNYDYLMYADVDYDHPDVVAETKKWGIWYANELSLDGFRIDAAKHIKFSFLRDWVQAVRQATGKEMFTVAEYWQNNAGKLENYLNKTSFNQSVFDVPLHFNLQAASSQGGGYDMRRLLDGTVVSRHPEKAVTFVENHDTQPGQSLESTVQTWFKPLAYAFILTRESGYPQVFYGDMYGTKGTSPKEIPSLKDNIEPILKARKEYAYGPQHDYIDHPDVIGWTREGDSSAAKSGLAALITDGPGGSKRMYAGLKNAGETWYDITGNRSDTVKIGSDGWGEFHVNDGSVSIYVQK
Description: as §1

glucoamylase from Aspergillus Niger, sequence (P69328 25-640): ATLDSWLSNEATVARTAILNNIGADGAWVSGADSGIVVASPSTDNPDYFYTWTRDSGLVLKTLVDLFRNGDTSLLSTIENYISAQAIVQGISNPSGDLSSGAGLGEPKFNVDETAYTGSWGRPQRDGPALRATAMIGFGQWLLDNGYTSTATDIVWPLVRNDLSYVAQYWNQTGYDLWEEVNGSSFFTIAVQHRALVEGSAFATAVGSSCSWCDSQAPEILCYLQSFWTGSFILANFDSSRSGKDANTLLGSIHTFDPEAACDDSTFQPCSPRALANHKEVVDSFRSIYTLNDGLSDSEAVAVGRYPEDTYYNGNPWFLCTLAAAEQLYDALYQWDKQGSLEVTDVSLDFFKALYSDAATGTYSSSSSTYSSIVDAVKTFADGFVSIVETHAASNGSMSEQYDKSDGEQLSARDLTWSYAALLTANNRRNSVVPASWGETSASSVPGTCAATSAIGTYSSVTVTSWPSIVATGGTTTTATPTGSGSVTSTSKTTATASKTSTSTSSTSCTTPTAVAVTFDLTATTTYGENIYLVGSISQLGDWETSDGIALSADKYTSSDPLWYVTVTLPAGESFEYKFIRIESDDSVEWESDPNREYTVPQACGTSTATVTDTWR

With `[Mn+2]` [Mn^++, manganese ions] the “Relative Activity” value ([1]; 0.01 mM Mn^++, pH 5.3 sodium acetate buffer) was 108.3%, the “Relative Activity” value ([1]; 0.01 mM Mn^++, pH 7.0 potassium phosphate buffer) was 103.5% and the “Relative Activity” value ([1]; 0.1 mM Mn^++, pH 5.3 sodium acetate buffer) was 125.0%. For the same compound, the “Relative Activity” value ([1]; 0.1 mM Mn^++, pH 7.0 potassium phosphate buffer) was 103.5%, the “Relative Activity” value ([1]; 1 mM Mn^++, pH 5.3 sodium acetate buffer) was 145.2% and the “Relative Activity” value ([1]; 1 mM Mn^++, pH 7.0 potassium phosphate buffer) was 119.6%. For the same compound, the “Relative Activity” value ([1]; 10 mM Mn^++, pH 5.3 sodium acetate buffer) was 139.9%, the “Relative Activity” value ([1]; 10 mM Mn^++, pH 7.0 potassium phosphate buffer) was 95.7% and the “pH dependence of Mn^++ activation (in words)” value ([1]; pH 5.3 vs 7.0) was “greater activation at a pH of 5.3 than at 7.0”. The “Relative Activity” value [2] was 113.0% and 119.5%, the “Relative Activity” value ([3]; raw corn starch pre-incubated with 0.01 mM Mn^++) was 89.1% and the “Relative Activity” value ([3]; raw corn starch pre-incubated with 0.1 mM Mn^++) was 84.2%. For the same compound, the “Relative Activity” value ([3]; raw corn starch pre-incubated with 1 mM Mn^++) was 95.0%, the “Relative Activity” value ([3]; raw corn starch pre-incubated with 10 mM Mn^++) was 89.1% and the “cause of Mn^++-induced enhancement (in words)” value ([3]; starch pre-incubated with Mn^++ and washed) was “not caused by the action of Mn^++ on the starch”. For the same compound, the “Relative Activity” value ([4]; 0.01 mM Mn^++) was 101.5%, the “Relative Activity” value ([4]; 0.1 mM Mn^++) was 115.7% and the “Relative Activity” value ([4]; 1 mM Mn^++) was 119.1%. For the same compound, the “Relative Activity” value ([4]; 10 mM Mn^++) was 111.7% and the “effect on hydrolysis of raw corn starch (in words)” value ([4]; summary of Table 4) was “enhances the hydrolysis of raw corn starch”.

Source: patent US20080102497A1, “ENZYMATIC HYDROLYSIS OF STARCH” (priority 2006, published 2008)
